Consider 40 compounds from patent publication US12655150B2 (Cedilla Therapeutics, Inc., priority 2021, dated 2026).

SMILES strings stand for the structures. Where only a bound is given, the exact number is not on record here.

The test system of this experiment is NCI-H226. Briefly: 72H TEAD Proliferation Assay (Cell Titer Glo 2.0). It counts as cell-based. Particulars: Homo sapiens, NCI-H226, 72 h, CTG 2.0, cell line not given (NCI-H226 responsive, NCI-H28 non-responsive). The gist of the method: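 NF2-deficient NCI-H226 mesothelioma cells, TEAD-dependent, treated 72 h; NF2-wild-type NCI-H28 serves as the TEAD-independent counter-screen for off-target cytotoxicity. Viable cells quantified by CellTiter-Glo 2.0 luminescence; background and time-zero signal subtracted, GI50 from nonlinear dose-response fit.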
(In general: ATP-based viability assays read luminescence as a measure of living cells.)
Broadly, the GI50 is the concentration at which growth is held to half of that of the control. Lower therefore signals greater sensitivity of the cells. In turn, `C=CC(=O)NC1CCN(c2cn3ccnc3c(-c3ccc(C(F)(F)F)cc3)n2)C1` (stereo not shown) [I-227, N-(1-(8-(4-(trifluoromethyl)phenyl)imidazo[1,2-a]pyrazin-6-yl)pyrrolidin-3-yl)acrylamide] yielded a GI50 of at most 1000 nM.
The figure for `O=C(O)c1ccc2c(c1)nc(C1CCCCC1)c1nccn12` [I-68, 4-Cyclohexylimidazo[1,2-a]quinoxaline-7-carboxylic acid] is above 10000 nM.
The same measure for `O=C(O)c1ccc2c(c1)nc(N1CCC3(CC1)CC(F)(F)C3)c1cccn12` [I-32, 4-(2,2-Difluoro-7-azaspiro [3.5]nonan-7-yl) pyrrolo[1,2-a] quinoxaline-7-carboxylic acid]: 1000 to 5000 nM; for `C=CC(=O)NCc1cc(-c2ccc(C(F)(F)F)cc2)nn2ccnc12` [I-290, N-((6-(4-(trifluoromethyl)phenyl)imidazo[1,2-b]pyridazin-8-yl)methyl)acrylamide]: at most 1000 nM; for `C=CC(=O)N(C)Cc1cn2ccnc2c(-c2ccc(C(F)(F)F)cc2)n1` [I-177, N-Methyl-N-((8-(4-(trifluoromethyl)phenyl)imidazo[1,2-a]pyrazin-6-yl)methyl)acrylamide]: at most 1000 nM.
The same measure for `COc1cc(-c2ccc(C(F)(F)F)cc2)nc2cc(C(=O)N3CCC3CO)ccc12` (single isomer, unassigned) [I-372, (2-(hydroxymethyl)azetidin-1-yl) (4-methoxy-2-(4-(trifluoromethyl)phenyl)quinolin-7-yl)methanone]: 1000 to 5000 nM.
Turning to `CC(C)(C)c1ccc(-c2nc(CCC(=O)O)cn3ccnc23)cc1` [I-153, 3-(8-(4-(tert-Butyl)phenyl)imidazo[1,2-a]pyrazin-6-yl)propanoic acid], the 50% growth inhibitory concentration (GI50) was above 10000 nM.
The same measure for `O=C(O)c1ccc2c(c1)nc(N1CCC3(CCCCC3)C1)c1cccn12` [I-28, 4-(2-Azaspiro [4.5]decan-2-yl) pyrrolo[1,2-a] quinoxaline-7-carboxylic acid]: 1000 to 5000 nM; for `CC(C)(C)c1ccc(-c2nc3cc(NC(=O)CN)ccc3n3cccc23)cc1` [I-206, 2-Amino-N-(4-(4-(tert-butyl)phenyl)pyrrolo[1,2-a]quinoxalin-7-yl)acetamide]: 1000 to 5000 nM.
`CC(C)(C)c1ccc(-n2ccc3cc(C(=O)O)ccc32)cc1` [I-101, 1-(4-(tert-Butyl)phenyl)-1H-indole-5-carboxylic acid] gave a GI50 above 10000 nM.
The same measure for `CCOc1nc(-c2ccc(C(F)(F)F)cc2)nc2cc(C(=O)O)ccc12` [I-432, 4-ethoxy-2-(4-(trifluoromethyl)phenyl)quinazoline-7-carboxylic acid]: at most 1000 nM; for `CC[C@H](CO)NC(=O)c1ccc2nc(C)c(-c3ccc(C(F)(F)F)cc3)nc2c1` [I-423, (R)—N-(1-hydroxybutan-2-yl)-2-methyl-3-(4-(trifluoromethyl)phenyl)quinoxaline-6-carboxamide]: 5000 to 10000 nM.
`C=CC(=O)Nc1ccc2c(C)cc(-c3ccc(C(F)(F)F)cc3)nc2c1` [I-85, N-(4-Methyl-2-(4-(trifluoromethyl)phenyl)quinolin-7-yl)acrylamide] registered a 50% growth inhibitory concentration (GI50) of at most 1000 nM.
The figure for `O=C(O)c1ccc2c(-c3cnco3)cc(-c3ccc(C(F)(F)F)cc3)nc2c1` [I-389, 4-(oxazol-5-yl)-2-(4-(trifluoromethyl)phenyl)quinoline-7-carboxylic acid] is at most 1000 nM; for `C=CC(=O)NCc1cn2ccnc2c(Oc2cccc(C(F)(F)F)c2)n1` [I-171, N-((8-(3-(trifluoromethyl)phenoxy)imidazo[1,2-a]pyrazin-6-yl)methyl)acrylamide] it is at most 1000 nM.
The same measure for `COc1cc(-c2ccc(C(F)(F)F)cn2)nc2cc(C(=O)O)ccc12` [I-361, 4-methoxy-2-(5-(trifluoromethyl)pyridin-2-yl)quinoline-7-carboxylic acid]: 1000 to 5000 nM; for `O=C(O)c1ccc2c(c1)nc(-c1cnc(C(F)(F)F)cn1)c1cccn12` [I-198, 4-(5-(trifluoromethyl)pyrazin-2-yl)pyrrolo[1,2-a]quinoxaline-7-carboxylic acid]: 1000 to 5000 nM.
In the case of `O=C(O)c1ccc2c(c1)nc(N1CCC3(CCC3)C1)c1cccn12` [I-33, 4-(6-Azaspiro[3.4]octan-6-yl)pyrrolo[1,2-a]quinoxaline-7-carboxylic acid], the concentration for 50% growth inhibition (GI50) lay in the range of 5000 to 10000 nM.
The same measure for `O=C(O)c1ccc2c(c1)nc(N1CCC3(CC1)CC3)c1ccnn12` [I-277, 4-(6-azaspiro[2.5]octan-6-yl)pyrazolo[1,5-a]quinoxaline-7-carboxylic acid]: 1000 to 5000 nM; for `C=CC(=O)NCc1cn2ccnc2c(Nc2ccc(C(F)(F)F)cn2)n1` [I-170, N-((8-((5-(trifluoromethyl)pyridin-2-yl)amino)imidazo[1,2-a]pyrazin-6-yl)methyl)acrylamide]: at most 1000 nM.
As for `N#Cc1cc(C(F)(F)F)ccc1-c1nc2cc(C(=O)O)ccc2n2cccc12` [I-54, 4-(2-Cyano-4-(trifluoromethyl)phenyl)pyrrolo[1,2-a]quinoxaline-7-carboxylic acid], the GI50 lay within 5000 to 10000 nM.
Compound `Cc1nc2ccc(C(=O)O)cc2nc1-c1ccc(C(F)(F)F)cc1` [I-422, 2-methyl-3-(4-(trifluoromethyl)phenyl)quinoxaline-6-carboxylic acid] yielded a GI50 of 5000 to 10000 nM.
The same measure for `C=CC(=O)NCc1nc(-c2ccc(C(F)(F)F)cc2)cc2nccn12` [I-322, N-((7-(4-(Trifluoromethyl)phenyl)imidazo[1,2-c]pyrimidin-5-yl)methyl)acrylamide]: at most 1000 nM; for `C=CC(=O)NCc1cn2ccnc2c(N(C)Cc2ccc(C(F)(F)F)cc2)n1` [I-300, N-((8-(methyl(4-(trifluoromethyl)benzyl)amino)imidazo[1,2-a]pyrazin-6-yl)methyl)acrylamide]: at most 1000 nM; for `Cc1cc(-c2ccc(C(F)(F)F)cc2)nc2cc(C(=O)NCCO)ccc12` [I-259, N-(2-hydroxyethyl)-4-methyl-2-(4-(trifluoromethyl)phenyl)quinoline-7-carboxamide]: at most 1000 nM.
Take `CC(C)C12CC(Nc3nc4cc(C(=O)O)ccc4n4cccc34)(C1)C2` [I-22, 4-((3-Isopropylbicyclo[1.1.1]pentan-1-yl)amino)pyrrolo[1,2-a]quinoxaline-7-carboxylic acid]: the GI50 lay in the range of 1000 to 5000 nM.
Compound `O=C(O)c1ccc2c(c1)nc(-c1ccc(C(F)(F)F)cc1)c1cc(OC(F)F)cn12` [I-275, 2-(difluoromethoxy)-4-(4-(trifluoromethyl)phenyl)pyrrolo[1,2-a]quinoxaline-7-carboxylic acid] gave a GI50 of at most 1000 nM.
The figure for `CC[C@H](CO)NC(=O)c1ccc2c(OC)cc(-c3ccc(C(F)(F)F)cc3C)nc2c1` [I-336, (R)—N-(1-hydroxybutan-2-yl)-4-methoxy-2-(2-methyl-4-(trifluoromethyl)phenyl)quinoline-7-carboxamide] is at most 1000 nM; for `C=CC(=O)NCc1cn2cnnc2c(-c2ccc(C(F)(F)F)cc2)n1` [I-317, N-((8-(4-(trifluoromethyl)phenyl)-[1,2,4]triazolo[4,3-a]pyrazin-6-yl)methyl)acrylamide] it is 1000 to 5000 nM; for `COc1cc(-c2ccc(C(F)(F)F)cc2)nc2cc(C(=O)N[C@@H](CO)c3ccncc3)ccc12` [I-366, (R)—N-(2-hydroxy-1-(pyridin-4-yl)ethyl)-4-methoxy-2-(4-(trifluoromethyl)phenyl)quinoline-7-carboxamide] it is at most 1000 nM.
On to `C=CC(=O)NCc1cc2ccccc2c(-c2ccc(C(F)(F)F)nc2)n1` [I-302, N-((1-(6-(trifluoromethyl)pyridin-3-yl)isoquinolin-3-yl)methyl)acrylamide], for which the GI50 was at most 1000 nM.
In turn, `CC(C)(C)c1ccc(-c2cnc3ccc(C(=O)O)cc3n2)cc1` [I-157, 3-(4-(tert-Butyl)phenyl)quinoxaline-6-carboxylic acid] yielded a GI50 above 10000 nM.
The same measure for `Cc1cc2c(-c3ccc(C(F)(F)F)cn3)nc3cc(C(=O)O)ccc3n2c1` [I-405, 2-Methyl-4-(5-(trifluoromethyl)pyridin-2-yl)pyrrolo[1,2-a]quinoxaline-7-carboxylic acid]: at most 1000 nM; for `Cc1cc2c(-c3ccc(C(F)(F)F)cc3F)nc3cc(C(=O)O)ccc3n2c1` [I-84, 4-(2-Fluoro-4-(trifluoromethyl)phenyl)-2-methylpyrrolo[1,2-a]quinoxaline-7-carboxylic acid]: at most 1000 nM.
The same measure for `CC(C)(C)c1ccc(-c2cncc3c(C(=O)O)c[nH]c23)cc1` [I-97, 7-(4-(tert-Butyl)phenyl)-1H-pyrrolo[3,2-c] pyridine-3-carboxylic acid]: above 10000 nM; for `CC[C@H](CO)NC(=O)c1ccc2c(OC)cc(-c3ccc(C(F)(F)F)cc3Cl)nc2c1` [I-341, (R)-2-(2-chloro-4-(trifluoromethyl)phenyl)-N-(1-hydroxybutan-2-yl)-4-methoxyquinoline-7-carboxamide]: at most 1000 nM; for `CC(C)(C)c1ccc(-c2nc3cc(C(=O)O)cc(F)c3n3ccnc23)cc1` [I-72, 4-(4-(tert-Butyl)phenyl)-9-fluoroimidazo[1,2-a]quinoxaline-7-carboxylic acid]: 5000 to 10000 nM.
The figure for `CC(C)(C)c1ccc(-c2nc3cc(C(=O)O)ccc3n3cc(SC(F)(F)F)cc23)cc1` [I-411, 4-(4-(tert-Butyl)phenyl)-2-((trifluoromethyl)thio)pyrrolo[1,2-a]quinoxaline-7-carboxylic acid] is 1000 to 5000 nM; for `C=CC(=O)NCc1nc(-c2ccc(C(F)(F)F)cc2)c2ccn(C)c2n1` [I-292, N-((7-methyl-4-(4-(trifluoromethyl)phenyl)-7H-pyrrolo[2,3-d]pyrimidin-2-yl)methyl)acrylamide] it is at most 1000 nM; for `C=CC(=O)NCc1cn2ccnc2c(-c2ccc(SC(F)(F)F)cc2)n1` [I-448, N-((8-(4-((trifluoromethyl)thio)phenyl)imidazo[1,2-a]pyrazin-6-yl)methyl)acrylamide] it is at most 1000 nM.
